Measurements: patent US12257253B2, “Triamterene or nolatrexed for use in the treatment of phenylketonuria” (SOM INNOVATION BIOTECH, S.A., priority 2019, dated 2025)

What was measured:
wild-type PAH [1] = target: T1, wild-type PAH (Homo sapiens (Human), UniProt P00439); experiment: Isothermal titration calorimetry; format: binding; details: ITC
Text: 4. Isothermal Titration Calorimetry
Isothermal titration calorimetry (ITC) is a quantitative physical technique used to determine binding affinities of small molecules to proteins or other larger molecules [Freyer M. W. and Lewis E. A., Methods in Cell Biology, 2008, vol. 4, Chapter 4, pages 79-113]. The measurement detects changes of heat generated or absorbed when molecules interact, generate binding kinetics and thermodynamic profile of the molecular interaction. The following parameters are determined: KD (equilibrium dissociation constant), N (stoichiometry of the interaction (mol ligand/mol complex)), ΔH (enthalpy change), ΔG (Gibbs energy), T (temperature) and ΔS (entropy change).
ITC experiments were performed at 25° C. using a MicroCal PEAQ-ITC microcalorimeter (Malvern). PAH proteins were prepared in a HEPES buffer (HEPES 20 mM Hepes, 0.2M NaCl, 1 mM DTT, pH 7.0) containing 5% DMSO, in order to match the final DMSO concentration of the compounds dilutions. The protein concentration used (30 μM) was determined using ultraviolet (UV) absorbance at 280 nm. The compounds ([…]) were prepared using the exact same buffer. Twelve injections of 3 μL of compound/ligand were titrated into the sample cell (containing the protein) over 31 min with a stirring speed of 750 rpm. Data was baseline adjusted by subtracting the background obtained from equivalent injections of compound into the buffer solution. The titration curves were analyzed using MicroCal PEAQ-ITC analytics software (version 1.1.0.1262, Malvern Instruments Ltd.) using a model that assumes a set of identical binding sites where the total heat of the solution is calculated as:
[formula] where n is the number of binding sites, Mt is the total protein concentration in the cell, ΔH is the molar heat of ligand binding, Xt is the total concentration of ligand, and K the binding constant (K=1/KD). The heat released per injection (i), ΔQ(i), is calculated following the equation below, which compensates for the volume that is added in each injection (ΔVi). V0 is the initial volume in the cell.
The parameters, n, K, and ΔH are determined using non-linear square fitting using the Levenberg-Marquardt algorithm.

wild-type PAH [2] = target: T1, wild-type PAH; experiment: Phenylalanine hydroxylase enzyme activity assay in transfected COS7 cells; format: cell-based; details: compound 10 μM (sepiapterin 5 μM), 48 h
Method: (§1) 2. Phenylalanine Hydroxylase Enzyme Activity Assay
(§2) This assay was completed in cell culture to analyze the enzyme activity in the presence of compounds. In brief, wild-type or Arg261Gln PAH constructs were transiently expressed in COS7-cells in a 96 well format reflecting the PAH genotype (COS7 cell line has no endogenous PAH). Cells were treated with the compounds at a final concentration of 10 μM and the enzyme activity of PAH was analyzed 48 h after transfection. The effect of the compounds on the residual enzyme activity was determined in comparison to non-treated cells (NCC, only compound solvent final 0.1%). To normalize the cellular background signal non transfected cells (NT control) were treated with compound or solvent equally for 48 h. As a positive control we used sepiapterin, a stable precursor of BH4 (CAS 17094-01-8), stabilized in 100 mM DTT, in a final concentration of 5 μM.
(§3) PAH activities were assayed at 25° C. as previously described (Gersting, S. W., J. Biol. Chem., 2010, 285(40), 30686-30697) with modifications. The standard mixture contained 22.35 mM NaHepes, pH 7.0, […] catalase, 10 μM ferrous ammonium sulphate, and 1 mM L-Phe (L-phenylalanine) final. Assay mixture and cell culture enzyme were pre-incubated for 5 min and the reaction was initiated by the addition of 75 μM BH4 (stabilized in 100 mM dithiothreitol) final, run for 60 min and stopped by acetic acid. The amount of L-tyrosine production was measured and quantified by HPLC, assayed as triplicates.
(§4) The effect of compound on PAH enzyme activity was calculated from triplicates as follows: first the background of the NT cells were subtracted from the transfected cells (treated or NCC) and then the percentage of treated (compound) versus NCC was determined. Enzyme activity greater than 100% represents an increase in the enzyme activity with respect to NCC.

Arg261Gln (R261Q) PAH = Arg261Gln (R261Q) PAH (Homo sapiens (Human), UniProt P00439, R261Q); experiment: as above; format: cell-based; details: compound 10 μM (sepiapterin 5 μM), 48 h
Method: as §1, §2, §3, §4

T1 sequence (P00439 whole entry): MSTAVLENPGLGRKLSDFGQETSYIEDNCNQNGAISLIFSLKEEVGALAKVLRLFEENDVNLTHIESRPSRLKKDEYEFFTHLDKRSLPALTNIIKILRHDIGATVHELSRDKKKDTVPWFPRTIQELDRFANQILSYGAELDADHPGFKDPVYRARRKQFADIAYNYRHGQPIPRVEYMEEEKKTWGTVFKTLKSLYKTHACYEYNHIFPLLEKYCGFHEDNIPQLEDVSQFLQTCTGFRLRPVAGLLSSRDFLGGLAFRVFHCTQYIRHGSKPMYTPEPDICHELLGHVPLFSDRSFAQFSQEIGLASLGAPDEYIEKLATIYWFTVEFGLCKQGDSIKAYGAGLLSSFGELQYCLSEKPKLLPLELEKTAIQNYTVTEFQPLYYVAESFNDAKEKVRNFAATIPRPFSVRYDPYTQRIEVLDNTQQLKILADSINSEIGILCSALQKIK
Sequence of Arg261Gln (R261Q) PAH (P00439 whole entry R261Q): as the sequence (P00439 whole entry) above, with R261Q counted along it

Kd (wild-type PAH [1]; 25° C., WT PAH): 3.03 µM | N (stoichiometry) (wild-type PAH [1]; 25° C., WT PAH): 0.726 ± 0.00 sites | ΔG (wild-type PAH [1]; 25° C., WT PAH): -31.5 kJ/mol | ΔH (wild-type PAH [1]; 25° C., WT PAH): -23.2 ± 0.7 kJ/mol | −TΔS (wild-type PAH [1]; 25° C., WT PAH): -8.32 kJ/mol | Kd (in words) (wild-type PAH [1]; recombinant PAH): low micromolar range | PAH enzyme activity (L-Tyrosine formation) WT PAH Mean (wild-type PAH [2]): 118.98 % NCC | PAH enzyme activity (L-Tyrosine formation) R261Q PAH Mean (Arg261Gln (R261Q) PAH): 161.48 % NCC
SMILES: Nc1nc(N)c2nc(-c3ccccc3)c(N)nc2n1 [Triamterene, 2,4,7-triamino-6-phenylpteridine]
